The source of these data is patent publication US20210002725A1, “METHODS FOR THE DIAGNOSIS OF METABOLIC DISORDERS USING EPIMETABOLIC SHIFTERS, MULTIDIMENSIONAL INTRACELLULAR MOLECULES, OR ENVIRONMENTAL INFLUENCES” (Berg LLC, priority 2009, published 2021).

For experiment [1], the system named is ATP Citrate Lyase (ACL). The experiment in a line: Western blot of ATP Citrate Lyase levels in cells treated with Coenzyme Q10. Format: cell-based, human. The conditions noted are these: for ATP Citrate Lysase band Normalized Intensity: 48 h. The method, then:
The whole cell pellets were resuspended one at a time in 1 mL of C7 buffer and transferred to labeled 15 mL tubes. The samples were then sonicated in the cold room on ice using 6 sonic pulses with the setting at #14. The samples were spun for a short time to 2500 g after sonication and the samples transferred to 2 ml tubes. The pH was verified of each sample (pH should be 9.0) using the foam remaining in the […] sample tubes.
After transfer each of the blots was placed in between 2 Whatman Filter papers and dried for 15-20 minutes. After drying the blots were labeled with the date, the type of samples and either blot 1 or blot 2 using a HB pencil. The molecular weight markers were outlined with the pencil and with single lines for the blue and a doublet for the colored markers. The blots were activated with methanol for 5 seconds, washed with water for 5 minutes, and TBST for 15 minutes. The blots were blocked for 1 hour with 5% blocking reagent in TBS-T at room temperature and then washed 3 times with TBS-T (1×-15′; 2×5′ each). Blot 1 was probed with the primary antibody for IDH1 (Cell Signaling #3997) in TBST with 5% BSA (at 1:1000 dilutions) and blot 2 with the rabbit polyclonal antibody for ATP Citrate Lyase in 5% BSA (Cell Signaling #4332) at 1:1000 dilution by incubation overnight at 4 deg C. with shaking. After the overnight incubation with primary antibodies, the blots were washed 3 times with TBS-T (1×-15′; 2×5′ each) and probed with the secondary antibody (antirabbit; 1:10,000 dilution) for 1 hon the orbital tilting shaker at room temperature. After 1 h of incubation with secondary antibodies, the blots were washed 3 times with TBS-T (1×-15′; 2×5′ each) and then incubated with ECF reagent for 5 mins and then each blot scanned with 5100 Fuji Laser scanner at 25 uM resolution, 16 bit, green laser, at 400V and at 500 V.
The samples were processed and run on a 4-12% Bis-Tris Novex NuPAGE gel as described above. The gels were run, transferred and stained essentially as described above.
The Isocitrate dehydrogenase blot was stripped by incubating for 30 minutes with methanol, followed by two 10 minute washes with TBS-T, then 30 minutes of incubation with stripping buffer at 50 deg C., and followed by two washes with 100 ml or more of TBS-T for 30′ each. The blot was scanned in laser scanner to check for complete stripping. The blot was activated with methanol for 5 seconds, washed with water for 5 minutes, and TBST for 15 minutes. The blot was blocked for 1 hour with 5% blocking reagent in TBS-T at room temperature and then washed 3 times with TBS-T (1×-15′; 2×5′ each). This was then probed with the rabbit polyclonal antibody for ATP Citrate Lyase in 5% BSA (Cell Signaling #4332) at 1:1000 dilution overnight at 4 deg C. with shaking. After the overnight incubation with primary antibody for ATP Citrate Lyase, the membrane was washed 3 times with TBS-T (1×-15′; 2×5′ each) and probed with the secondary antibody (antirabbit; 1:10,000 dilution) for 1 h on the orbital tilting shaker at room temperature. After 1 h of incubation with secondary antibodies, the blot was washed 3 times with TBS-T (1×-15′; 2×5′ each) and then incubated with ECF reagent for 5 minutes and then each blot scanned with 5100 Fuji Laser scanner at 25 uM resolution, 16 bit, green laser, at 400V and at 500 V.
In this experiment (western blot experiment 3), and in all of the experiments described below in this Example (i.e., western blot experiments 4 through 9), the cells were additionally treated with either 5 mM glucose (“5G”) or 22 mM glucose (“22G”). The samples derived from the cells were processed and run on a 4-12% Bis-Tris Novex NuPAGE gel as described above. The gels were run, transferred and stained essentially as described above.
The levels of IDH1, ATP citrate lyase and actin levels were determined by probing the blots with primary antibodies for IDH1, ATP citrate lyase and actin, essentially as described above.

Experiment [2] relates to HASMC cells. The experiment in a line: SeaHorse XF analyzer OCR and ECAR. The experiment is classed as cell-based, human. The conditions noted are these: hyperglycemic cells in hypoxic conditions. The source says:
Environmental influencers (e.g., MIMs or Epi-shifters) may also be identified by changes in cellular energetics. One example of the measurement of cellular energetics are the real-time measures of the consumption of molecular oxygen and/or the change in pH of the media of a cell culture. For example, the ability of a potential epi-shifter to modulate the metabolic state of a cell may be analyzed using, for example, the XF24 Analyzer (Seahorse, Inc.). This technology allows for real time detection of oxygen and pH changes in a monolayer of cells in order to evaluate the bioenergetics of a cell microenvironment. The XF24 Analyzer measures and compares the rates of oxygen consumption (OCR), which is a measure of aerobic metabolism, and extracellular acidification (ECAR), which is a measure of glycolysis, both key indicators of cellular energetics.
(SeaHorse Biosciences Inc, North Billerica, Mass.).
In this experiment, the OCR and extracellular acidification rate (ECAR) in normal cells lines were obtained in the presence and absence of CoQ10 to determine baseline values. It was observed that in its native nutrient environment, the basal OCR rates in normal cells lines are different, and are usually a function of the physiological roles of the cells in the body. […]

As for `COC1=C(OC)C(=O)C(C/C=C(\C)CC/C=C(\C)CC/C=C(\C)CC/C=C(\C)CC/C=C(\C)CC/C=C(\C)CC/C=C(\C)CC/C=C(\C)CC/C=C(\C)CCC=C(C)C)=C(C)C1=O` [Q10, Coenzyme Q10], the “ATP Citrate Lysase band Normalized Intensity” value is reported as 23341 in experiment [1] (HASMC (Table 34), 5 g, 50 μM); 25544 in experiment [1] (HASMC (Table 34), 5 g, 100 μM); 21439 in experiment [1] (HASMC (Table 34), 22 G, 50 μM); 19491 in experiment [1] (HASMC (Table 34), 22 G, 100 μM); 12056 in experiment [1] (HASMC (Table 35), 5 g, 50 μM); 15265 in experiment [1] (HASMC (Table 35), 5 g, 100 μM). For the same compound, the “ATP Citrate Lysase band Normalized Intensity” value in experiment [1] (HASMC (Table 35), 22 G, 50 μM) is reported as 15857; in experiment [1] (HASMC (Table 35), 22 G, 100 μM), 13892; in experiment [1] (HepG2, 5 g, 50 μM) it was 24106; in experiment [1] (HepG2, 5 g, 100 μM) it was 22463; in experiment [1] (HepG2, 22 G, 50 μM), 31235; in experiment [1] (HepG2, 22 G, 100 μM), 50588. Moreover, the “ATP Citrate Lysase band Normalized Intensity” value in experiment [1] (PACA2, 5 g, 50 μM) is 8027; in experiment [1] (PACA2, 5 g, 100 μM) it was 4942; in experiment [1] (PACA2, 22 G, 50 μM), 9537; in experiment [1] (PACA2, 22 G, 100 μM), 14901. Further, the “ATPCL Average Normalized Intensity” value in experiment [1] (HDFa, 50 μM) is around 7500; in experiment [1] (HDFa, 100 μM), around 25000; in experiment [1] (MCF-7, 50 μM), around 7500. In addition, in experiment [2], the ECAR rates result was “downward trend”.
